Source: patent publication US4464385A, “Treatment of diabetic complications with hydantoins” (Alcon Laboratories, Inc., priority 1982, dated 1984)

Tests used:
cataracts in rats = experiment: Prevention or retardation of cataracts in galactose-fed rats; type: in vivo, rat; conditions: for suppression of the formation of nuclear cataracts: 30 days; for % of Total Eyes, + (vacuole) / % of Total Eyes, - (Normal) / % of Total Eyes, N (nuclear cataract) / % of Total Eyes, S (snowflake) / Number of Eyes Observed, + (vacuole) / Number of Eyes Observed, - (Normal) / Number of Eyes Observed, N (nuclear cataract) / Number of Eyes Observed, S (snowflake) / Number of Eyes Observed, ±: 30% galactose diet, A,C,E 0.0025%, B,D 0.01%
Outline: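 Rats given test compound mixed into diet (by % of total feed weight; 0.01% designed to supply 20 mg/kg/day) ad libitum for thirty days after a two-day chow acclimatization, twelve animals per treatment. Eyes examined by handheld ophthalmoscope and/or penlight and each eye graded.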

aldose reductase = experiment: Aldose reductase inhibition / potency (general statement)

## C[S+]([O-])c1ccc2c(c1)C1(CCO2)NC(=O)NC1=O (centres unmarked) [D, spiro-(6-methylsulfinylchroman-4,4'-imidazolidine)-2',5'-dione]
Cataracts in rats; 0.0025% in diet
  suppression of the formation of nuclear cataracts: greater than 80%
Cataracts in rats; 0.01% in diet
  time to vacuole formation, versus galactose control: different (p<0.05) from control
  suppression of the formation of nuclear cataracts: greater than 80%
Cataracts in rats; Study Day 2
  % of Total Eyes, + (vacuole): 0%
  % of Total Eyes, - (Normal): 100.0%
  % of Total Eyes, N (nuclear cataract): 0%
  % of Total Eyes, S (snowflake): 0%
  Number of Eyes Observed, + (vacuole): 0 eyes
  Number of Eyes Observed, - (Normal): 24 eyes
  Number of Eyes Observed, N (nuclear cataract): 0 eyes
  Number of Eyes Observed, S (snowflake): 0 eyes
  Number of Eyes Observed, ±: 0 eyes
Cataracts in rats; Study Day 3
  % of Total Eyes, + (vacuole): 0%
  % of Total Eyes, - (Normal): 91.7%
  % of Total Eyes, N (nuclear cataract): 0%
  % of Total Eyes, S (snowflake): 0%
  Number of Eyes Observed, + (vacuole): 0 eyes
  Number of Eyes Observed, - (Normal): 22 eyes
  Number of Eyes Observed, N (nuclear cataract): 0 eyes
  Number of Eyes Observed, S (snowflake): 0 eyes
  Number of Eyes Observed, ±: 2 eyes
Cataracts in rats; Study Day 4
  % of Total Eyes, + (vacuole): 16.7%
  % of Total Eyes, - (Normal): 75.0%
  % of Total Eyes, N (nuclear cataract): 0%
  % of Total Eyes, S (snowflake): 0%
  Number of Eyes Observed, + (vacuole): 4 eyes
  Number of Eyes Observed, - (Normal): 18 eyes
  Number of Eyes Observed, N (nuclear cataract): 0 eyes
  Number of Eyes Observed, S (snowflake): 0 eyes
  Number of Eyes Observed, ±: 2 eyes
Cataracts in rats; Study Day 5
  % of Total Eyes, + (vacuole): 33.3%
  % of Total Eyes, - (Normal): 33.3%
  % of Total Eyes, N (nuclear cataract): 0%
  % of Total Eyes, S (snowflake): 0%
  Number of Eyes Observed, + (vacuole): 8 eyes
  Number of Eyes Observed, - (Normal): 8 eyes
  Number of Eyes Observed, N (nuclear cataract): 0 eyes
  Number of Eyes Observed, S (snowflake): 0 eyes
  Number of Eyes Observed, ±: 8 eyes
Cataracts in rats; Study Day 6
  % of Total Eyes, + (vacuole): 41.6%
  % of Total Eyes, - (Normal): 25.0%
  % of Total Eyes, N (nuclear cataract): 0%
  % of Total Eyes, S (snowflake): 0%
  Number of Eyes Observed, + (vacuole): 10 eyes
  Number of Eyes Observed, - (Normal): 6 eyes
  Number of Eyes Observed, N (nuclear cataract): 0 eyes
  Number of Eyes Observed, S (snowflake): 0 eyes
  Number of Eyes Observed, ±: 8 eyes
Cataracts in rats; Study Day 8
  % of Total Eyes, + (vacuole): 50.0%
  % of Total Eyes, - (Normal): 16.7%
  % of Total Eyes, N (nuclear cataract): 0%
  % of Total Eyes, S (snowflake): 8.3%
  Number of Eyes Observed, + (vacuole): 12 eyes
  Number of Eyes Observed, - (Normal): 4 eyes
  Number of Eyes Observed, N (nuclear cataract): 0 eyes
  Number of Eyes Observed, S (snowflake): 2 eyes
  Number of Eyes Observed, ±: 6 eyes
Cataracts in rats; Study Day 10
  % of Total Eyes, + (vacuole): 58.4%
  % of Total Eyes, - (Normal): 8.3%
  % of Total Eyes, N (nuclear cataract): 0%
  % of Total Eyes, S (snowflake): 16.7%
  Number of Eyes Observed, + (vacuole): 14 eyes
  Number of Eyes Observed, - (Normal): 2 eyes
  Number of Eyes Observed, N (nuclear cataract): 0 eyes
  Number of Eyes Observed, S (snowflake): 4 eyes
  Number of Eyes Observed, ±: 4 eyes
Cataracts in rats; Study Day 12
  % of Total Eyes, + (vacuole): 62.5%
  % of Total Eyes, - (Normal): 0%
  % of Total Eyes, N (nuclear cataract): 0%
  % of Total Eyes, S (snowflake): 20.8%
  Number of Eyes Observed, + (vacuole): 15 eyes
  Number of Eyes Observed, - (Normal): 0 eyes
  Number of Eyes Observed, N (nuclear cataract): 0 eyes
  Number of Eyes Observed, S (snowflake): 5 eyes
  Number of Eyes Observed, ±: 4 eyes
Cataracts in rats; Study Day 14
  % of Total Eyes, + (vacuole): 62.5%
  % of Total Eyes, - (Normal): 0%
  % of Total Eyes, N (nuclear cataract): 0%
  % of Total Eyes, S (snowflake): 29.2%
  Number of Eyes Observed, + (vacuole): 15 eyes
  Number of Eyes Observed, - (Normal): 0 eyes
  Number of Eyes Observed, N (nuclear cataract): 0 eyes
  Number of Eyes Observed, S (snowflake): 7 eyes
  Number of Eyes Observed, ±: 2 eyes
Cataracts in rats; Study Day 16
  % of Total Eyes, + (vacuole): 45.8%
  % of Total Eyes, - (Normal): 0%
  % of Total Eyes, N (nuclear cataract): 0%
  % of Total Eyes, S (snowflake): 37.5%
  Number of Eyes Observed, + (vacuole): 13 eyes
  Number of Eyes Observed, - (Normal): 0 eyes
  Number of Eyes Observed, N (nuclear cataract): 0 eyes
  Number of Eyes Observed, S (snowflake): 9 eyes
  Number of Eyes Observed, ±: 2 eyes
Cataracts in rats; Study Day 18
  % of Total Eyes, + (vacuole): 54.2%
  % of Total Eyes, - (Normal): 0%
  % of Total Eyes, N (nuclear cataract): 0%
  % of Total Eyes, S (snowflake): 37.5%
  Number of Eyes Observed, + (vacuole): 13 eyes
  Number of Eyes Observed, - (Normal): 0 eyes
  Number of Eyes Observed, N (nuclear cataract): 0 eyes
  Number of Eyes Observed, S (snowflake): 9 eyes
  Number of Eyes Observed, ±: 2 eyes
Cataracts in rats; Study Day 20
  % of Total Eyes, + (vacuole): 29.2%
  % of Total Eyes, - (Normal): 0%
  % of Total Eyes, N (nuclear cataract): 4.2%
  % of Total Eyes, S (snowflake): 58.4%
  Number of Eyes Observed, + (vacuole): 7 eyes
  Number of Eyes Observed, - (Normal): 0 eyes
  Number of Eyes Observed, N (nuclear cataract): 1 eyes
  Number of Eyes Observed, S (snowflake): 14 eyes
  Number of Eyes Observed, ±: 2 eyes
Cataracts in rats; Study Day 22
  % of Total Eyes, + (vacuole): 20.8%
  % of Total Eyes, - (Normal): 0%
  % of Total Eyes, N (nuclear cataract): 8.3%
  % of Total Eyes, S (snowflake): 70.8%
  Number of Eyes Observed, + (vacuole): 5 eyes
  Number of Eyes Observed, - (Normal): 0 eyes
  Number of Eyes Observed, N (nuclear cataract): 2 eyes
  Number of Eyes Observed, S (snowflake): 17 eyes
  Number of Eyes Observed, ±: 0 eyes
Cataracts in rats; Study Day 24
  % of Total Eyes, + (vacuole): 20.8%
  % of Total Eyes, - (Normal): 0%
  % of Total Eyes, N (nuclear cataract): 8.3%
  % of Total Eyes, S (snowflake): 70.8%
  Number of Eyes Observed, + (vacuole): 5 eyes
  Number of Eyes Observed, - (Normal): 0 eyes
  Number of Eyes Observed, N (nuclear cataract): 2 eyes
  Number of Eyes Observed, S (snowflake): 17 eyes
  Number of Eyes Observed, ±: 0 eyes
Cataracts in rats; Study Day 26
  % of Total Eyes, + (vacuole): 16.7%
  % of Total Eyes, - (Normal): 0%
  % of Total Eyes, N (nuclear cataract): 8.3%
  % of Total Eyes, S (snowflake): 75.0%
  Number of Eyes Observed, + (vacuole): 4 eyes
  Number of Eyes Observed, - (Normal): 0 eyes
  Number of Eyes Observed, N (nuclear cataract): 2 eyes
  Number of Eyes Observed, S (snowflake): 18 eyes
  Number of Eyes Observed, ±: 0 eyes
Cataracts in rats; Study Day 28
  % of Total Eyes, + (vacuole): 16.7%
  % of Total Eyes, - (Normal): 0%
  % of Total Eyes, N (nuclear cataract): 16.7%
  % of Total Eyes, S (snowflake): 66.7%
  Number of Eyes Observed, + (vacuole): 4 eyes
  Number of Eyes Observed, - (Normal): 0 eyes
  Number of Eyes Observed, N (nuclear cataract): 4 eyes
  Number of Eyes Observed, S (snowflake): 16 eyes
  Number of Eyes Observed, ±: 0 eyes
Cataracts in rats; Study Day 30
  % of Total Eyes, + (vacuole): 4.2%
  % of Total Eyes, - (Normal): 0%
  % of Total Eyes, N (nuclear cataract): 16.7%
  % of Total Eyes, S (snowflake): 79.2%
  Number of Eyes Observed, + (vacuole): 1 eyes
  Number of Eyes Observed, - (Normal): 0 eyes
  Number of Eyes Observed, N (nuclear cataract): 4 eyes
  Number of Eyes Observed, S (snowflake): 19 eyes
  Number of Eyes Observed, ±: 0 eyes
Cataracts in rats; methylthio 0.0025%, sulfinyl 0.01% in diet
  time to vacuole formation, 0.0025% methylthio versus 0.01% sulfinyl: not different from each other
Aldose reductase
  activity relative to the methylthio derivative: lacked the activity of the methylthio derivative
